The source of these data is patent US9439431B2, “Pesticidal mixtures comprising isoxazoline derivatives” (Syngenta Participations AG, priority 2011, dated 2016).

Holding throughout (format): cell-based
The test system of test [1] is Mycosphaerella arachidis (syn. Cercospora arachidicola). The test can be described thus: Mycosphaerella arachidis (syn. Cercospora arachidicola) growth inhibition in nutrient broth (microtiter plate, photometric). To be noted: approximately 5-6 days. How it is done: Brown leaf spot of groundnut (peanut): Conidia of the fungus from cryogenic storage were directly mixed into nutrient broth (potato dextrose broth). After placing a (DMSO) solution of the test compounds into a microtiter plate (96-well format) the nutrient broth containing the fungal spores was added. The test plates were incubated at 24° C. and the inhibition of growth was determined photometrically after approximately 5-6 days at 620 nm. Two replicates per treatment were evaluated

A further test relates to Gaeumannomyces graminis. The test can be described thus: Gaeumannomyces graminis growth inhibition in nutrient broth (microtiter plate, photometric). The following applies: 48 hours. As for the experimental part: Mycelial fragments of the fungus from cryogenic storage were directly mixed into nutrient broth (potato dextrose broth). After placing a (DMSO) solution of the test compounds into a microtiter plate (96-well format) the nutrient broth containing the fungal spores was added. The test plates were incubated at 24° C. and the inhibition of growth was determined photometrically after 48 hours at 620 nm. Two replicates per treatment were evaluated.

The test system of the next test is Septoria tritici. The test can be described thus: Septoria tritici (leaf blotch) growth inhibition in nutrient broth (microtiter plate, photometric). The following applies: 72 hours. How it is done: Conidia of the fungus from cryogenic storage were directly mixed into nutrient broth (potato dextrose broth). After placing a (DMSO) solution of the test compounds into a microtiter plate (96-well format) the nutrient broth containing the fungal spores was added. The test plates were incubated at 24° C. and the inhibition of growth was determined photometrically after 72 hours. Two replicates per treatment were evaluated.

With `Cn1cc(C(=O)Nc2cccc3c2C2CCC3C2=C(Cl)Cl)c(C(F)F)n1` (centres unmarked) [C-IIIA], the Observed control % in test [1] (C-IIIA 0.0156 ppm alone) amounted to 20.0%; in test [1] (C-IIIA 0.0313 ppm alone) it was 90.0%.

As for `CO/C=C(/C(=O)OC)c1ccccc1Oc1cc(Oc2ccccc2C#N)ncn1` [azoxystrobin, Azoxystrobin], the Observed control % with Gaeumannomyces graminis (azoxystrobin 0.0625 ppm alone) was determined as 0.0%; with Gaeumannomyces graminis (azoxystrobin 0.1250 ppm alone), 20.0%; with Gaeumannomyces graminis (azoxystrobin 0.2500 ppm alone), 20.0%; in the test on Gaeumannomyces graminis (azoxystrobin 0.5000 ppm alone) it was 50.0%; with Gaeumannomyces graminis (azoxystrobin 1.0000 ppm alone), 50.0%; in the test on Gaeumannomyces graminis (azoxystrobin 2.0000 ppm alone), 50.0%.

For the molecule `CC(C1CC1)C(O)(Cn1cncn1)c1ccc(Cl)cc1` (centres unmarked) [cypropconazole, Cyproconazole], the Observed control % worked out at 0.0% in the test on Septoria tritici (cypropconazole 0.0625 ppm alone); 0.0% in the test on Septoria tritici (cypropconazole 0.1250 ppm alone); 0.0% in the test with Septoria tritici (cypropconazole 0.2500 ppm alone); 70.0% in the test with Septoria tritici (cypropconazole 0.5000 ppm alone); 90.0% in the test with Septoria tritici (cypropconazole 1.0000 ppm alone); 90.0% with Septoria tritici (cypropconazole 2.0000 ppm alone).
